Literature values in paper PMC4781755 (Biochemistry, 2015).

Tests used:
hNaDC3 = settings: read-out: Km for succinate, hNaDC3
hNaDC1 = settings: read-out: Km for succinate, hNaDC1

SMILES | inhibition of vcINDY (vcINDY) | Km (hNaDC3) | Km (hNaDC1)
O=C(O)CC(O)(CC(=O)O)C(=O)O [citrate] | weak inhibitor | – | –
O=C(O)CCC(=O)O [succinate] | – | ~20 µM | 500 µM
